Experimental data as given in US20260306453A1, “FORMULATIONS CONTAINING TRYPTAMINE DERIVATIVES AND USES THEREOF” (priority 2023, published 2026).
Several values for one entry are separate records, joined by “and”; a condition that tells them apart may be missing. Equal values may be shown once. Read-outs that look alike come from different tables or passages of the source.

Tests used:
[1] = type: in vivo; conditions: rat
Description: (§1) The rat PK (FIG. 6) was assessed with an oral dose of 10 mg/kg and intravenously at 1 mg/kg. […] The PK and brain concentrations were assessed in cohorts of 3 […] for each dosing group and between the plasma vs brain concentrations. For 10 mg/kg oral dosing, the PK parameters are outlined in Table 16 below.
1 mg/kg IV dosing, the PK parameters are outlined in Table 17.

[2] = type: in vivo; conditions: rat, IV 1 mg/kg of 2-Br-4-AcO-DMT * HBr, 4 h, individual rat
Description: as §1
The brain vs. plasma concentrations from oral and IV doses of 2-Br-4-ACO-DMT*HBr are listed in Table 18 via detection of active 2-Br-4-OH-DMT.

[3] = tested on: cytokine interleukin 6 (IL-6); experiment: IL-6 quantification in HT22 mouse hippocampal neuronal cells; type: cell-based; conditions: LPS stressed, HBr salt, 24 hours
Source text: (§2) For neuroplasticity, brain-derived neurotrophic factor (BDNF; FIGS. 3B1 and 3B2) and for inflammation, cytokine interleukin 6 (IL-6; FIGS. 3A1 and 3A2) and TNFα (FIGS. 3C1 and 3C2), were quantified with and without proinflammatory treatment of lipopolysaccharide (LPS). LPS-induced inflammation is a model for neuroinflammation similar to what is seen in patients with neurodegenerative disorders. […] IL-6 is elevated in patients with frontotemporal dementias and other neurodegenerative disorders and especially in patients with disinhibition.

[4] = tested on: brain-derived neurotrophic factor (BDNF); experiment: BDNF quantification in HT22 mouse hippocampal neuronal cells; type: cell-based; conditions: HT22 control cells (no LPS); HBr salt; 24 hours
Source text: as §2

TNFα = TNFα quantification in HT22 mouse hippocampal neuronal cells; type: cell-based; conditions: LPS stressed, HBr salt, 24 hours
Source text: as §2

[5] = tested on: metabotropic glutamate receptor 2 (mGlu2); experiment: Brain tissue mGlu2 protein expression in prefrontal cortex after in vivo treatment; set-up: species or system mouse; conditions: male C57BL/6J mice, 25 mg/kg daily 18 days
Source text: The expression of metabotropic glutamate receptor 2 (mGlu2) in the prefrontal cortex was quantified following in vivo mouse studies. Regulation of the metabotropic glutamate receptor 2 (mGlu2) levels in alcohol seeking rats can reduce relapse behavior.

mice = experiment: Reduction in alcohol consumption; type: in vivo, mouse; conditions: addicted mice
Source text: In order to test for the ability to curb alcohol consumption, mice were given 8-20%/alcohol ab libitum for two weeks. The results of alcohol consumption were monitored over two weeks after daily dosing of test compound in relation to positive control (4-AcO-DMT). Further studies extended the experiment to 60 days for three different doses while only dosing the mice every 3 days.

SMILES: CN(C)CCc1c(Br)[nH]c2cccc(O)c12 [2-Br-4-OH-DMT, 2-bromo-3-(2-(dimethylamino)ethyl)-1H-indol-4-ol]
- AUC Extr ([1]; 1 mg/kg IV of 2-Br-4-AcO-DMT * HBr, individual rat, 1 mg/kg): 7.66% and 4.06% and 4.54%
- AUC Extr ([1]; 1 mg/kg IV of 2-Br-4-AcO-DMT * HBr, mean of 3 rats): 5.42%
- AUC Extr ([1]; 10 mg/kg PO of 2-Br-4-AcO-DMT * HBr, mean of 3 rats): 4.50%
- Plasma Concentration [2]: BLOQ

SMILES: CC(=O)Oc1cccc2[nH]c(Br)c(CCN(C)C)c12 [2-Br-4-AcO-DMT, 2-bromo-3-(2-(dimethylamino)ethyl)-1H-indol-4-yl acetate]
- IL-6 level [3]: reduces IL-6
- BDNF level [4]: increases neuroplasticity marker BDNF in the control cells
- TNFα level (TNFα): reduces IL-6 and TNFα in the stressed LPS cells
- mGluR2 expression reduction compared with psilacetin ([5]; n=5-6, relative to actin, normalized to vehicle): exceeding the effect of psilacetin
- mGluR2 expression, unstressed mice ([5]; no-stress, prefrontal cortex): reduced expression of mGluR2
- mGluR2 expression, stressed mice ([5]; tube restraint, prefrontal cortex): reduced expression of mGluR2

SMILES: CC(=O)Oc1cccc2[nH]c(Br)c(CCN(C)C)c12 [drawing 37]
- Alcohol Consumption, effective dose range (mice): 5 to 40 mg/kg
